This note sets out measurements from US20250074869A1, “AMINO-COMBRETASTATIN DERIVATIVE AND USE THEREOF” (priority 2020, published 2025).

One data set has as its system colon cancer cells HT-29. Briefly: Efficacy study in nude mouse with xenograft tumor, HT-29. It counts as in vivo, human. To be noted: BALB/cA-nude mice, subcutaneous xenograft, 50 mg/kg intragastric once daily for 21 days, dosed as hydrochloride; for inhibition in vivo at 50 mg/kg: Mus musculus, HT-29, sc, 504 h, read-out: % tumor inhibition (D21) HT-29. On the procedure:
(§1) BALB/cA-nude mice aged 6 to 7 weeks were purchased from Shanghai Slac Laboratory Animal Co., Ltd. The nude mice were subcutaneously grafted with human liver cancer cells Bel-7402, colon cancer cells HT-29, gastric cancer cells SGC-7901 or non-small cell lung cancer cells A549. After the tumor grew to 100 to 250 mm^3, the animals were randomized (d0). The tumor volumes and body weights were measured twice or thrice a week, and the data were recorded. Tumor volume (V) was calculated as follows:
(§2) [formula] • wherein a and b represent length and width, respectively; T and C are the tumor volumes at the end of study; T0 and C0 are the tumor volumes at the start of study.
(§3) All samples were diluted to the desired concentration with 50% PEG400 in distilled water. The regimen was once daily for 21 days at 50 mg/kg mouse body weight through intragastric administration, and 50 mg/kg for the control. The compounds obtained in Examples 1, 3, 4, 5, 6, 7, 8, 9, 10, 11, 12, 13 and 14 and the control were prepared into corresponding hydrochloride as the dosing compounds according to the method disclosed in Example 2 to investigate their efficacy on human liver cancer cell Bel-7402, colon cancer cell HT-29, gastric cancer cell SGC-7901 or non-small cell lung cancer cell A549 xenograft tumors in nude mice and to compare the compounds with the control (prepared as in Example 16).

Data set [1] deals with gastric cancer cells SGC-7901. Put plainly: Efficacy study in nude mouse with xenograft tumor, SGC-7901. It counts as in vivo, human. As to conditions: BALB/cA-nude mice, subcutaneous xenograft, 50 mg/kg intragastric once daily for 21 days, dosed as hydrochloride; for inhibition in vivo at 50 mg/kg: Mus musculus, SGC-7901, sc, 504 h, read-out: % tumor inhibition (D21) SGC-7901. The protocol: as §1, §2, §3

The test system of data set [2] is non-small cell lung cancer cells A549. Put plainly: Efficacy study in nude mouse with xenograft tumor, A549. In kind it is in vivo, human. To be noted: BALB/cA-nude mice, subcutaneous xenograft, 50 mg/kg intragastric once daily for 21 days, dosed as hydrochloride; for inhibition in vivo at 50 mg/kg: Mus musculus, A549, sc, 504 h, read-out: % tumor inhibition (D21) A549. The protocol:
as §1, §2, §3

Data set [3] has as its system human liver cancer cells Bel-7402. Briefly: Efficacy study in nude mouse with xenograft tumor, Bel-7402. In kind it is in vivo. As to conditions: BALB/cA-nude mice, subcutaneous xenograft, 50 mg/kg intragastric once daily for 21 days, dosed as hydrochloride; for inhibition in vivo at 50 mg/kg: Mus musculus, Bel-7402, sc, 504 h, read-out: % tumor inhibition (D21) Bel-7402. The protocol:
as §1, §2, §3

Data set [4] can be described thus: Acute toxicity study in animals (oral LD50). As to conditions: mouse, in vivo, male ICR mice, intragastric administration, observed 14 days, hydrochloride salts. The source says: Male ICR mice weighed 23±2 g, clean grade, were selected. The route of administration was intragastric (ig) administration, which is consistent with the intended oral route for clinical use.
Mice were randomly divided into 8 groups by weight: the blank control group, Example 1 group, Example 5 group, Example 11 group, Example 12 group, Example 13 group, Example 14 group and control group. Among these, the control group received amino-combretastatin serinamide hydrochloride as the control (hereinafter referred to as control).
Preparation of the compounds used in the example groups: The compounds obtained in Example 1, Example 3. Example 4. Example 5. Example 6. Example 7. Example 8. Example 9. Example 10. Example 11. Example 12, Example 13 and Example 14 were prepared into hydrochloride salts according to the method disclosed in Example 2.
Pre-treatment: […] were deprived of food but not water for 12 h before the study. and randomized into groups of 10 by body weight. The treatment groups were intragastrically administered once at 0.25 mL/10 g body weight, and the water control group received an equivalent amount of distilled water through intragastric administration. The LD100 value (the amount for 100% death), LD0 (the amount for 0 death) and the corresponding range r value between the dose groups were calculated, and LD50 was determined.
Study procedures: 160 mice were randomized into 8 groups of 20 mice by body weight. After deprivation of food but not water for 12 h before the study, each group was intragastrically given the compound once at 0.3 mL/10 g body weight. Since no death was observed after 12 h, the second dose was given. The control group received equivalent volumes of water. The daily dose of each group was calculated; the control group received equal volumes of water and was subjected to an acute toxicity study for observation and the body weight of the mice was recorded daily for 14 days.

Counter-ions that a name gives are not always drawn.

With `CCCN(CCC)CCC(=O)Nc1cc(/C=C\c2cc(OC)c(OC)c(OC)c2)ccc1OCC` [Example 1], the inhibition in vivo at 50 mg/kg in the data set with colon cancer cells HT-29 turned out to be 93%; in data set [1], 82%; in data set [2], 69%; in data set [3], 92%.
In the same order, the values of `CCCN(CCC)CCC(=O)Nc1cc(/C=C\c2cc(OC)c(OC)c(OC)c2)ccc1OC` [Example 3, (Z)-1-(3,4,5-trimethoxyphenyl)-2-((3-(bis(2-n-propyl)amino)propionamide)-4-methoxyphenyl)ethylene] are 88%, 78%, 65% and 89%.
Consider `CCOc1ccc(/C=C\c2cc(OC)c(OC)c(OC)c2)cc1NC(=O)CCN(CC)CC` [Example 4, (Z)-1-(3,4,5-trimethoxyphenyl)-2-((3-(bis(2-ethyl)amino)propionamide)-4-ethoxyphenyl)ethylene], for which the inhibition in vivo at 50 mg/kg in the data set on colon cancer cells HT-29 came out at 91%; in data set [1], 76%; in data set [2], 67%; in data set [3], 90%.
As to `CCCCN(CCCC)CCC(=O)Nc1cc(/C=C\c2cc(OC)c(OC)c(OC)c2)ccc1OCC` [Example 5, (Z)-1-(3,4,5-trimethoxyphenyl)-2-((3-(bis(2-n-butyl)amino)propionamide)-4-ethoxyphenyl)ethylene], the inhibition in vivo at 50 mg/kg was determined as 82% in the data set with colon cancer cells HT-29, 80% in data set [1], 63% in data set [2] and 88% in data set [3].
In the same order, the values of `CCCCN(CCCC)CCC(=O)Nc1cc(/C=C\c2cc(OC)c(OC)c(OC)c2)ccc1OC` [Example 6, (Z)-1-(3,4,5-trimethoxyphenyl)-2-((3-(bis(2-n-butyl)amino)propionamide)-4-methoxyphenyl)ethylene] are 90%, 81%, 62% and 89%.
On to `CCCN(CCC)CCC(=O)Nc1cc(/C=C\c2cc(OC)c(OC)c(OC)c2)ccc1OCC(F)(F)F` [Example 7, (Z)-1-(3,4,5-trimethoxyphenyl)-2-((3-(bis(2-n-propyl)amino)propionamide)-4-trifluoroethoxyphenyl) ethylene], for which the inhibition in vivo at 50 mg/kg was 79% in the data set with colon cancer cells HT-29, 65% in data set [1], 66% in data set [2] and 81% in data set [3].
For `CCCN(CCC)CCC(=O)Nc1cc(/C=C\c2cc(OC)c(OC)c(OC)c2)ccc1OC(F)F` [Example 8, (Z)-1-(3,4,5-trimethoxyphenyl)-2-((3-(bis(2-n-propyl)amino)propionamide)-4-difluoromethoxyphenyl)ethylene], the inhibition in vivo at 50 mg/kg in the data set on colon cancer cells HT-29 is 88%; in data set [1], 71%; in data set [2], 67%; in data set [3], 90%.
The corresponding values for `CCCCN(CCCC)CCC(=O)Nc1cc(/C=C\c2cc(OC)c(OC)c(OC)c2)ccc1OCC(F)(F)F` [Example 9, (Z)-1-(3,4,5-trimethoxyphenyl)-2-((3-(bis(2-n-butyl)amino)propionamide)-4-trifluoroethoxyphenyl)ethylene] are 85%, 80%, 61% and 79%.
For `CCC(C)N(CCC(=O)Nc1cc(/C=C\c2cc(OC)c(OC)c(OC)c2)ccc1OC(F)F)C(C)CC` (stereo not drawn) [Example 10, (Z)-1-(3,4,5-trimethoxyphenyl)-2-((3-(bis(2-n-butyl)amino)propionamide)-4-difluoromethoxyphenyl)ethylene], in the data set on colon cancer cells HT-29, the “% tumor inhibition (D21) HT-29” value is 81%. Moreover, the “% tumor inhibition (D21) SGC-7901” value in data set [1] was determined as 73%. Also, in data set [2], the “% tumor inhibition (D21) A549” value came out at 60%. Further, in data set [3], the “% tumor inhibition (D21) Bel-7402” value turned out to be 86%.
`CCOc1ccc(/C=C\c2cc(OC)c(OC)c(OC)c2)cc1NC(=O)CCN(CCO)CCO` [Example 11, (Z)-1-(3,4,5-trimethoxyphenyl)-2-((3-(bis(2-hydroxyethyl)amino)propionamide)-4-ethoxyphenyl)ethylene]: the inhibition in vivo at 50 mg/kg in the data set with colon cancer cells HT-29 was found to be 89%; in data set [1], 65%; in data set [2] it was 63%; in data set [3], 88%.
On to `COc1ccc(/C=C\c2cc(OC)c(OC)c(OC)c2)cc1NC(=O)CCN(CCO)CCO` [Example 12, (Z)-1-(3,4,5-trimethoxyphenyl)-2-((3-(bis(2-hydroxyethyl)amino)propionamide)-4-methoxyphenyl)ethylene], for which the inhibition in vivo at 50 mg/kg was determined as 79% in the data set with colon cancer cells HT-29, 77% in data set [1], 58% in data set [2] and 79% in data set [3].
On to `CCOc1ccc(/C=C\c2cc(OC)c(OC)c(OC)c2)cc1NC(=O)CCNCC(F)F` [Example 13, (Z)-1-(3,4,5-trimethoxyphenyl)-2-((3-(2,2-difluoroethylamino)propionamide)-4-ethoxyphenyl)ethylene], for which the inhibition in vivo at 50 mg/kg is 77% with colon cancer cells HT-29, 72% in data set [1], 63% in data set [2] and 82% in data set [3].
The corresponding values for `CCOc1ccc(/C=C\c2cc(OC)c(OC)c(OC)c2)cc1NC(=O)CCNCC(OC)OC` [Example 14, (Z)-1-(3,4,5-trimethoxyphenyl)-2-((3-(2,2-dimethoxyethylamino)propionamide)-4-ethoxyphenyl)ethylene] are 71%, 80%, 66% and 82%.
As for `CCCN(CCC)CCC(=O)Nc1cc(/C=C\c2cc(OC)c(OC)c(OC)c2)ccc1OCC` [Hydrochloride of Example 1, (Z)-1-(3,4,5-trimethoxyphenyl)-2-((3-(bis(2-n-propyl)amino)propionamide)-4-ethoxyphenyl)ethylene hydrochloride], the LD50 at 14 days in data set [4] was 1200 mg/kg.
On the same count and under the same terms, the value for `CCCN(CCC)CCC(=O)Nc1cc(/C=C\c2cc(OC)c(OC)c(OC)c2)ccc1OC` [Hydrochloride of Example 3] was 1000 mg/kg; that for `CCOc1ccc(/C=C\c2cc(OC)c(OC)c(OC)c2)cc1NC(=O)CCN(CC)CC` [Hydrochloride of Example 4] was 1100 mg/kg; that for `CCCCN(CCCC)CCC(=O)Nc1cc(/C=C\c2cc(OC)c(OC)c(OC)c2)ccc1OCC` [Hydrochloride of Example 5] was 1200 mg/kg.
Take `CCCCN(CCCC)CCC(=O)Nc1cc(/C=C\c2cc(OC)c(OC)c(OC)c2)ccc1OC` [Hydrochloride of Example 6]: the LD50 in data set [4] stood at 900 mg/kg.
Regarding `CCCN(CCC)CCC(=O)Nc1cc(/C=C\c2cc(OC)c(OC)c(OC)c2)ccc1OCC(F)(F)F` [Hydrochloride of Example 7], the LD50 at 14 days in data set [4] came out at 1200 mg/kg.
The same measure, in the same setting: in the case of `CCCN(CCC)CCC(=O)Nc1cc(/C=C\c2cc(OC)c(OC)c(OC)c2)ccc1OC(F)F` [Hydrochloride of Example 8] it was 1100 mg/kg; in that of `CCCCN(CCCC)CCC(=O)Nc1cc(/C=C\c2cc(OC)c(OC)c(OC)c2)ccc1OCC(F)(F)F` [Hydrochloride of Example 9], 1000 mg/kg.
